Data from paper PMC9940855, “First-in-Class Dual Hybrid Carbonic Anhydrase Inhibitors and Transient Receptor Potential Vanilloid 1 Agonists Revert Oxaliplatin-Induced Neuropathy” (Journal of Medicinal Chemistry, 2023).
Entries after “also recorded” stand apart in the source; their conditions may differ.

Experiments:
[1] = biological target: hCA II (Homo sapiens, UniProt P00918); details: for Ki: read-out: KI hCA II, stopped-flow CO2 hydrase assay, mean from three different assays, errors ±5–10%
[2] = biological target: hCA IV (Homo sapiens, UniProt P22748); details: read-out: KI hCA IV; stopped-flow CO2 hydrase assay; mean from three different assays, errors ±5–10%
Chain of hCA IV (P22748 19-312): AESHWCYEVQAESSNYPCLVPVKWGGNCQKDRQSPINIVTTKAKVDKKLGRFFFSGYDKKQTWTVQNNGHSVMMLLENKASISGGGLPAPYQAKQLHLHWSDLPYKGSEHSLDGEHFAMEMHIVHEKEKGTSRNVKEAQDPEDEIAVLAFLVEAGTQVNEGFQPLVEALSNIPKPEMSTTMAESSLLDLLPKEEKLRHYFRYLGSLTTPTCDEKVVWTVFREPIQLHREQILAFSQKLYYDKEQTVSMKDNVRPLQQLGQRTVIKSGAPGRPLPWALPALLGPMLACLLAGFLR

[3] = biological target: T1, hCA IX (Homo sapiens, UniProt Q16790); assay type: biochemical
T1 construct: made in house

[4] = biological target: hCA VII (Homo sapiens, UniProt P43166); details: read-out: KI hCA VII; stopped-flow CO2 hydrase assay; mean from three different assays, errors ±5–10%
Chain of hCA VII (P43166 whole entry): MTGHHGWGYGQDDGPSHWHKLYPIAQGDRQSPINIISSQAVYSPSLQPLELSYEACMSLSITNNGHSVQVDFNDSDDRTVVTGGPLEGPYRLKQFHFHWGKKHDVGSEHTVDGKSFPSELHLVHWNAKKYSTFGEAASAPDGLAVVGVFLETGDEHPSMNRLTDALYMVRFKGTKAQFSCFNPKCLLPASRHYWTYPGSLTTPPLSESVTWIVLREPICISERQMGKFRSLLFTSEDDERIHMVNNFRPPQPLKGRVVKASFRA

[5] = biological target: hCA I (Homo sapiens, UniProt P00915); details: read-out: KI hCA I; stopped-flow CO2 hydrase assay; mean from three different assays, errors ±5–10%
Chain of hCA I (P00915 whole entry): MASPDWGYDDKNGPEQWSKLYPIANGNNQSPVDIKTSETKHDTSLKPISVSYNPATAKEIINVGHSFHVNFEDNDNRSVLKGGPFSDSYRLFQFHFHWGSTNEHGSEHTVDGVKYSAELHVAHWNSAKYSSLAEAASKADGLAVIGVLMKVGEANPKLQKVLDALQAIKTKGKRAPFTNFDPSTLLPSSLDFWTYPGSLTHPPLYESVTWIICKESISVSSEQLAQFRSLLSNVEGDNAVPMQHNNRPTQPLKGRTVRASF

[6] = biological target: hCA XII (Homo sapiens, UniProt O43570); details: read-out: KI hCA XII; stopped-flow CO2 hydrase assay; mean from three different assays, errors ±5–10%
Chain of hCA XII (O43570 25-354): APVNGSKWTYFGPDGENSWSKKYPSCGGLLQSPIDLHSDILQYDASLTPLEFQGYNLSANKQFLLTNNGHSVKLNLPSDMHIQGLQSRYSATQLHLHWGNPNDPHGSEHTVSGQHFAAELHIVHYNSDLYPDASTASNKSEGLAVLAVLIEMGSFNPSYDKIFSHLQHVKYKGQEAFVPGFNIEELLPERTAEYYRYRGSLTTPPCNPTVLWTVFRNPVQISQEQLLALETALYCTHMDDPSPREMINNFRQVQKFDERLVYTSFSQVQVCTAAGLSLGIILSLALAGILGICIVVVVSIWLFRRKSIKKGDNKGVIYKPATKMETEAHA

[7] = biological target: T2, TRPV1 receptor (Homo sapiens, UniProt Q8NER1); assay: TRPV1 assay, Fluo-4NW fluorescence in SH-SY5Y-TRPV1 cells; assay type: cell-based; details: read-out: EC50 on TRPV1 receptor activity (agonism)
T2 construct: expressed in transfected cells
T2 sequence (Q8NER1 whole entry): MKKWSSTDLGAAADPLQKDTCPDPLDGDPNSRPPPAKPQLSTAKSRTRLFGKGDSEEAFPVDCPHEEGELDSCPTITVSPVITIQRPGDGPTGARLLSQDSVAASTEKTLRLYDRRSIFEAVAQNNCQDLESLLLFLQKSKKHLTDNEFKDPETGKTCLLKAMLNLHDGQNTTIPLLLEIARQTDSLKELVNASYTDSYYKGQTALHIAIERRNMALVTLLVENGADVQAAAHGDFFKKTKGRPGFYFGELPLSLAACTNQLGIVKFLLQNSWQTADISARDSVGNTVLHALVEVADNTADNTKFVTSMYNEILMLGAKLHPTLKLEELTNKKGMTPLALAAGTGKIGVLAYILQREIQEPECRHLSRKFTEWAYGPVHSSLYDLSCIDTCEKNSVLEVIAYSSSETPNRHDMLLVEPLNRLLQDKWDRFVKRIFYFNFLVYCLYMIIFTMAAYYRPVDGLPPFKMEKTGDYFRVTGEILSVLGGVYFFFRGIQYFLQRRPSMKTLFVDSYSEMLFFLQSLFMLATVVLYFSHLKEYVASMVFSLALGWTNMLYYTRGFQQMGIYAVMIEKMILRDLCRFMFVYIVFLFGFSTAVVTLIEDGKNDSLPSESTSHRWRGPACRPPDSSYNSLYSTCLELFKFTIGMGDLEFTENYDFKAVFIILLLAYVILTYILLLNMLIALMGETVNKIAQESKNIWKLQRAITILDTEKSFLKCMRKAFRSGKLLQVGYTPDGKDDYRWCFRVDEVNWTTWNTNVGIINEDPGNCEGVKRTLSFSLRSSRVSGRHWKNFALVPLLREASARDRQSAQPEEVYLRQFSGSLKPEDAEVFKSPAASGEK
Description: SH-SY5Y-TRPV1 cells (kindly provided by Johanna Lilja and Anna Forsby (University of Stockholm, Stockholm, Sweden))[40] were cultured in 96 wells. Upon 90% confluence had been reached, the cells were loaded with 5 μM Fluo-4NW for 1 h at 37 °C. […] Briefly, after measuring the basal fluorescence of the plate (four cycles), testing compounds were added to the plate, and the fluorescence was measured for additional 10 cycles; thereafter, 10 μM capsaicin was added with a microinjector and the fluorescence was monitored for an additional 10 cycles.

[8] = tested on: oxaliplatin-induced neuropathic pain (cold allodynia); assay: Cold plate test in mouse model of oxaliplatin-induced neuropathic pain; assay type: in vivo; details: p.o., acute; for pain-relieving effect (licking latency, Cold plate test), in words: 10–100 mg/kg; for time of peak pain-relieving effect post-administration: up to 100 mg/kg

Q: What does the source list for NS(=O)(=O)c1ccc(N2CC[C@@H](NC(=O)Nc3ccc4c(c3)OCCO4)C2)nc1 [15a, (R)-6-(3-(3-(2,3-Dihydrobenzo[b][1,4]dioxin-6-yl)ureido)pyrrolidin-1-yl)pyridine-3-sulfonamide]?
A: Ki [1]: 0.0502 µM; Ki [2]: 3.56 µM; Ki [3]: 0.192 µM; Ki [4]: 0.0094 µM; Ki [5]: 0.0722 µM; Ki [6]: 0.0067 µM; EC50 [7]: > 100 µM

Q: COc1ccccc1NC(=O)N[C@@H]1CCN(c2ccc(S(N)(=O)=O)cn2)C1 [18a, (R)-6-(3-(3-(2-Methoxyphenyl)ureido)pyrrolidin-1-yl)pyridine-3-sulfonamide] was tested. Which Ki [1] did it give?
A: 0.287 µM

Q: And the Ki [2]?
A: 5.08 µM

Q: And the Ki [3]?
A: 0.0361 µM

Q: What about the Ki [4] of the same compound?
A: 0.0687 µM

Q: And the Ki [5]?
A: 0.0735 µM

Q: And the Ki [6]?
A: 0.0722 µM

Q: What about the EC50 [7] of the same compound?
A: > 100 µM

Q: Which Ki [1] does the source give for NS(=O)(=O)c1ccc(N2CC[C@@H](NC(=S)Nc3ccccc3F)C2)nc1 [21a, (R)-6-(3-(3-(2-Fluorophenyl)thioureido)pyrrolidin-1-yl)pyridine-3-sulfonamide] here?
A: 0.0149 µM

Q: And the Ki [2]?
A: 3.09 µM

Q: What about the Ki [3] of the same compound?
A: 0.378 µM

Q: And the Ki [5]?
A: 0.0313 µM

Q: What about the Ki [6] of the same compound?
A: 0.0083 µM

Q: And the EC50 [7]?
A: > 100 µM

Q: For NS(=O)(=O)c1ccc(NC(=S)N[C@@H]2CCN(c3cccc([N+](=O)[O-])n3)C2)cc1 [37a, (R)-4-(3-(1-(6-Nitropyridin-2-yl)pyrrolidin-3-yl)thioureido)benzenesulfonamide], which “fold higher efficacy in inhibiting CA II over (R)-12a” value ([1]; ratio of Ki) is on record?
A: 10.4 fold

Q: And the Ki [1]?
A: 0.0067 µM

Q: And the Ki [2]?
A: 0.471 µM

Q: And the Ki [3]?
A: 0.0168 µM

Q: What about the Ki [4] of the same compound?
A: 0.175 µM

Q: What about the “pain-relieving effect (licking latency, Cold plate test), in words” value ([8]; day 15) of the same compound?
A: more potent and effective than (R)-12a

Q: What about the “time of peak pain-relieving effect post-administration” value ([8]; Cold plate test) of the same compound?
A: 30 min

Q: And the Ki [5]?
A: 0.0748 µM

Q: And the Ki [6]?
A: 0.409 µM

Q: What about the EC50 [7] of the same compound?
A: 8 µM

Q: What does the source list for NS(=O)(=O)c1cccc(NC(=S)N[C@@H]2CCN(c3cccc([N+](=O)[O-])n3)C2)c1 [38a, (R)-3-(3-(1-(6-Nitropyridin-2-yl)pyrrolidin-3-yl)thioureido)benzenesulfonamide]?
A: Ki [1]: 0.0086 µM; Ki [2]: 0.238 µM; Ki [3]: 0.162 µM; Ki [4]: 0.0836 µM; Ki [5]: 0.0785 µM; Ki [6]: 0.238 µM; EC50 [7]: 44.2 µM

Q: How did the Ki [1] turn out when NS(=O)(=O)c1ccc(NC(=O)N[C@@H]2CCN(c3cccc([N+](=O)[O-])n3)C2)cc1 [43a, (R)-4-(3-(1-(6-Nitropyridin-2-yl)pyrrolidin-3-yl)ureido)benzenesulfonamide] was run?
A: 0.0075 µM

Q: What about the Ki [2] of the same compound?
A: 2.29 µM

Q: What about the Ki [3] of the same compound?
A: 0.0936 µM

Q: And the Ki [4]?
A: 0.164 µM

Q: And the “pain-relieving effect (licking latency, Cold plate test), in words” value ([8]; day 15, listed as (R)-43a)?
A: dose-dependent effectiveness; also recorded: moderate and shorter relieving outcomes

Q: What about the “time at which the effect was suppressed” value ([8]; Cold plate test) of the same compound?
A: 75 min

Q: And the “time of peak pain-relieving effect post-administration” value ([8]; Cold plate test)?
A: 45 min

Q: And the Ki [5]?
A: 0.0683 µM

Q: And the Ki [6]?
A: 0.0837 µM

Q: What about the EC50 [7] of the same compound?
A: > 100 µM
